According to PubChem BioAssay (NCI):
Where “and” joins values, the source holds several entries; their conditions need not be identical. Equal entries are not always repeated.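 Assay format: 96-well plates, 48-hour exposure. GI50 marks 50% less growth. TGI: total growth inhibition.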

Assays:
Experiment in all cases: DTP human tumour cell line panel, 48 h
COLO 205 colon = system: COLO 205 colon
EKVX NSCLC = system: EKVX NSCLC
HL-60(TB) leukemia = system: HL-60(TB) leukemia
HOP-92 NSCLC = system: HOP-92 NSCLC
KM12 colon = system: KM12 colon
MDA-MB-231 breast = system: MDA-MB-231 breast
MOLT-4 leukemia = system: MOLT-4 leukemia
OVCAR-4 ovarian = system: OVCAR-4 ovarian
SF-268 CNS = system: SF-268 CNS
SK-OV-3 ovarian = system: SK-OV-3 ovarian

| SMILES | GI50 (COLO 205 colon) | TGI (COLO 205 colon) | GI50 (EKVX NSCLC) | TGI (EKVX NSCLC) | GI50 (HL-60(TB) leukemia) | TGI (HL-60(TB) leukemia) | GI50 (HOP-92 NSCLC) | TGI (HOP-92 NSCLC) | GI50 (KM12 colon) | TGI (KM12 colon) | GI50 (MDA-MB-231 breast) | TGI (MDA-MB-231 breast) | GI50 (MOLT-4 leukemia) | TGI (MOLT-4 leukemia) | GI50 (OVCAR-4 ovarian) | TGI (OVCAR-4 ovarian) | GI50 (SF-268 CNS) | TGI (SF-268 CNS) | GI50 (SK-OV-3 ovarian) | TGI (SK-OV-3 ovarian) |
| --- | --- | --- | --- | --- | --- | --- | --- | --- | --- | --- | --- | --- | --- | --- | --- | --- | --- | --- | --- | --- |
| Oc1ccc(CCNc2nc3ccccc3c3[nH]c4ccccc4c23)cc1O | 2.27 µM | 6.8 µM | 8.99 µM | 37.4 µM | 2.07 µM | 4.36 µM | 1.31 µM | 2.95 µM | 1.59 µM | 4.19 µM | 2.98 µM | 11.8 µM | 2.16 µM | 5.38 µM | 4.8 µM | 16.9 µM | 5.7 µM | 30.1 µM | 10.7 µM | 22.6 µM |
| O=C(Nc1ccccc1/C=C/c1n[nH]c2ccccc12)c1ccccc1 | 1.71 µM | 3.6 µM | 1.34 µM | 8.91 µM | 0.589 µM | 16.2 µM | 0.218 µM | 5.25 µM | 0.0648 µM | 1.65 µM | 3.45 µM | 15.7 µM | 7.27 µM | 38.2 µM | 9.46 µM | 24.7 µM | 3.75 µM | 17.3 µM | 10.9 µM | 22.8 µM |
| CC[C@@H]1C(=O)N(C)c2cnc(Nc3ccc(C(=O)NC4CCC(N5CCN(CC6CC6)CC5)CC4)cc3OC)nc2N1C(C)C (some centres undefined) | 0.00438 µM and < 0.01 µM | 0.276 µM and 0.268 µM | 0.0749 µM and 0.234 µM | > 10 µM and 21.6 µM | 0.00286 µM and < 0.0167 µM | 0.0596 µM and 0.0871 µM | 0.0441 µM and 0.0596 µM | > 2.9 µM and 5.99 µM | 0.0069 µM and < 0.01 µM | > 10 µM and 8.15 µM | 0.0186 µM and 0.0304 µM | > 4.6 µM and 7.06 µM | 0.0116 µM and 0.019 µM | > 5.38 µM and 1.28 µM | 0.89 µM and 0.466 µM | > 10 µM and 19 µM | 0.0586 µM and 0.0485 µM | > 10 µM and 7.8 µM | 0.046 µM and 0.0354 µM | 1.37 µM and 0.904 µM |
| COc1cc(OC)c(OC)cc1/C=C/c1ccccn1 |  | > 10 µM |  | > 10 µM |  | > 10 µM |  | > 10 µM |  | > 10 µM |  | > 10 µM |  | > 10 µM |  | > 10 µM |  | > 10 µM |  | > 10 µM |
| Cc1cc(NC(=O)NCCCOc2ccc(N3C(N)=NC(N)=NC3(C)C)cc2Cl)ccc1S(=O)(=O)F | 1.17 µM | 17.5 µM | 1.32 µM | > 100 µM | 0.647 µM | 28.9 µM | 2.85 µM | 45.6 µM | 0.631 µM | 17 µM | 7.16 µM | > 100 µM | 1.14 µM | > 96.1 µM | 2.34 µM | > 100 µM | 0.569 µM | > 58.9 µM | 9.72 µM | > 82.3 µM |
| CCCN1CCC(Oc2cc(Nc3nc(Nc4cccc(F)c4C(N)=O)c4cc[nH]c4n3)c(OC)cc2Cl)CC1 | 0.417 µM | 0.806 µM | 3.1 µM | 7.41 µM | 2.54 µM | 8.31 µM | 0.309 µM | 3.42 µM | 2.72 µM | 6.11 µM | 2.16 µM | 5.52 µM | 3.48 µM | 7.97 µM | 3.67 µM | 8.05 µM | 3.79 µM | 8.32 µM | 4.87 µM | 14 µM |
| N#Cc1nc2cc(Cl)c(Cl)cc2nc1-c1ccc(Cl)cc1 | > 76.3 µM | > 100 µM | > 100 µM | > 100 µM | > 100 µM | > 100 µM | 27.8 µM | > 100 µM | > 60.5 µM | > 100 µM | 22.3 µM | > 73.4 µM | 26.9 µM | > 60.4 µM | > 100 µM | > 100 µM | 27.4 µM | > 72.7 µM | > 48.3 µM | > 80.5 µM |
| COC1C(OC(=O)/C=C/C=C/C=C/C=C/C(=O)O)CCC2(CO2)C1C1(C)OC1CC=C(C)C (centres undefined) | 0.157 µM | 26.1 µM | 0.436 µM | > 82.9 µM | 0.187 µM | 70.6 µM | 0.438 µM | > 76.1 µM | 0.471 µM | 29.4 µM | 0.525 µM | 80.5 µM | 0.347 µM | 78.7 µM | 0.184 µM | > 87 µM | 0.388 µM | > 100 µM |  | > 84.5 µM |
| CCN(Cc1ccccc1)c1ccc(/C=C2\COc3ccccc3C2=O)cc1 | > 1000 µM | > 1000 µM | 538 µM | > 1000 µM | 221 µM | > 1000 µM | 553 µM | > 1000 µM | 376 µM | > 1000 µM | 896 µM | > 1000 µM | 105 µM | > 1000 µM | 761 µM | > 1000 µM | > 1000 µM | > 1000 µM | > 1000 µM | > 1000 µM |
